Measurements from US20120046362A1, “ANTIVIRAL AGENT AND CLEANSING AGENT” (priority 2009, published 2012).
Where two headings read alike, the source gives them in different places.

How the values were obtained:
[1] = test system: Influenza virus A/whistling swan/Shimane/499/83 (H5N3); type: cell-based, avian influenza virus; details: for effect on the avian influenza virus (ability to inactivate): Example 10, each potassium soap diluted to 0.035 M; for infection dose of the avian influenza virus reduced to / ability to inactivate: Example 9, diluted to 0.0035 mol/L with purified water; for ability to inactivate the avian influenza virus, potassium versus sodium oleate soap: Example 4, 0.35 M oleate soap tested as in Example 2
[2] = test system: feline calicivirus; assay: Inactivation ability against infectivity of feline calicivirus (TCID50 on CRFK cells); type: cell-based; details: for inactivation ability against the feline calicivirus, potassium versus sodium oleate soap: Example 4, 0.35 M oleate soap
[3] = test system: CRFK cells
[4] = test system: MDCK (+) cells
[5] = Example 8, sample No. 19 versus surface-active agents other than soap (Table 4, 10.32 %)
[6] = Example 9, diluted to 0.0035 mol/L with purified water

CCC=CCC=CCC=CCCCCCCCC(=O)[O-].[K+] [C18:3 (linolenate) soap]
effect on the avian influenza virus (ability to inactivate) [1]: weak

Sodium polyoxyethylene alkyl ether sulfate [compound 37]
virus inactivation ability / antiviral activity (feline calicivirus) [2, 5]: low antiviral activity
virus inactivation ability / antiviral activity (avian influenza virus) [1, 5]: low antiviral activity
cytotoxicity [3]: high cytotoxicity
cytotoxicity [4]: high cytotoxicity

CCCCCCCC/C=C\CCCCCCCC(=O)N(C)CC(=O)O [oleoyl sarcosine]
infection dose of the feline calicivirus reduced to / ability to inactivate [2]: could not be reduced
infection dose of the avian influenza virus reduced to / ability to inactivate [1]: about one-thousandth

CCCCCCCC/C=C\CCCCCCCC(=O)[O-].[K+] [potassium oleate soap, potassium oleate]
inactivation ability against the feline calicivirus, potassium versus sodium oleate soap [2]: no difference
infection dose of the feline calicivirus reduced to / ability to inactivate [2, 6]: excellent antiviral activity
ability to inactivate the avian influenza virus, potassium versus sodium oleate soap [1]: no difference
infection dose of the avian influenza virus reduced to / ability to inactivate [1]: excellent antiviral activity
effect on the avian influenza virus (ability to inactivate) [1]: excellent

CCCCCCCC/C=C\CCCCCCCCOS(=O)(=O)[O-].[Na+] [sodium oleyl sulfate]
infection dose of the feline calicivirus reduced to / ability to inactivate [2]: one-tenth or less
infection dose of the avian influenza virus reduced to / ability to inactivate [1]: one-tenth or less

CCCCC/C=C\C/C=C\CCCCCCCC(=O)[O-].[K+] [C18:2 (linoleate) soap]
effect on the avian influenza virus (ability to inactivate) [1]: excellent

Polyoxyethylene sorbitan monooleate
infection dose of the feline calicivirus reduced to / ability to inactivate [2, 6]: no ability to inactivate
infection dose of the avian influenza virus reduced to / ability to inactivate [1]: no ability to inactivate

CCCCCCCC/C=C\CCCCCCCC(=O)[O-].[Na+] [sodium oleate soap, sodium oleate]
inactivation ability against the feline calicivirus, potassium versus sodium oleate soap [2]: no difference
ability to inactivate the avian influenza virus, potassium versus sodium oleate soap [1]: no difference
